Legend:
Assay type in all cases: in vivo
CES1 = CES1 gene expression in rat sebaceous gland (epidermal split) after topical PPARgamma agonist, real-time PCR; conditions: topical 1% in acetone, female FUZZY rat, mRNA standardized to 18S, versus carrier group; for CES1 Relative induction - kinetics (hours): 0: 0 hours; for CES1 Relative induction - kinetics (hours): 8: 8 hours; for CES1 Relative induction - kinetics (hours): 24: 24 hours; for CES1 Relative induction - kinetics (hours): 48: 48 hours; for CES1 Relative induction - kinetics (hours): 96: 96 hours
Excerpt: (§1) Materials and methods: • Animals: Species: rat • Strain: Ico:HSd:FUZZY-fz • Gender: female • Age: 10 weeks • Number per batch: 40 (8 animals per group) • Treatment: Route of administration: topical • Compound/batch: PPARgamma agonists: • A: 5-{4-[2-(methylpyridin-2-ylamino)ethoxy]benzyl}thiazolidine-2,4-dione • B: 2-(methoxyethoxymethoxy)naphthalene-2-carboxylic acid [4′-(2,4-dioxothiazolidin-5-ylmethyl)biphenyl-3-ylmethyl]methylamide […] • C: (S)-2-ethoxy-3-{4-[6-(3-heptyl-1-methylureido)pyridin-2-yl]phenyl}propionic acid • Doses: 1% • Carrier: acetone (001) • Duration: 96 hours Method of evaluation: The animals are weighed at the beginning and at the end of the study. Skin biopsies are taken (6 samples of skin excised per rat) in order to analyze the expression of the genes (RNA extraction, reverse transcriptase and real-time PCR). The samples are stored at 4° C. overnight before incubation in 1 M sodium bromide (NaBr) for 2 hours at 37° C. After incubation, the samples are separated into epidermis or dermis. The epidermal samples are stored at 20° C. Under these conditions, the sebaceous glands are in the epidermal split. PCRs are carried out, beginning with the cDNAs originating from the epidermal splits containing sebaceous glands from control rats or rats treated with a PPARγ agonist: the mRNA is extracted using a column and quantified. The quality of the mRNAs is measured and is represented by the 18S/28S ratio. The results are standardized with respect to 18S, expressed as relative induction versus untreated animals (carrier group). The statistical analysis is obtained using internal software based on a modified Monte Carlo statistical analysis.

CES3 [1] = assay: CES3 gene expression in rat sebaceous gland (epidermal split) after topical PPARgamma agonist, real-time PCR; conditions: topical 1% in acetone, female FUZZY rat, mRNA standardized to 18S, versus carrier group; for CES3 Relative induction - kinetics (hours): 0: 0 hours; for CES3 Relative induction - kinetics (hours): 8: 8 hours; for CES3 Relative induction - kinetics (hours): 24: 24 hours; for CES3 Relative induction - kinetics (hours): 48: 48 hours; for CES3 Relative induction - kinetics (hours): 96: 96 hours
Excerpt: as §1, with “Ico:Hsd FUZZY-fz” for “Ico:HSd:FUZZY-fz”

CES3 [2] = assay: CES3 expression in Fuzzy rat epidermal split after 8 days of topical treatment, Affymetrix transcriptome analysis; conditions: topical 1% once a day for 8 days, female FUZZY rat
Experimental: The studies are carried out in female Fuzzy rats (Hsd: FUZZY-fz) 10 weeks old at the beginning of the study. The animals are treated at a dose of 1% (PPARg agonist Rosiglitazone in solution in acetone) once a day for 8 days. Two hours after the final treatment, the animals are sacrificed by euthanasia and the skin on the back is removed. After incubation in […], the epidermis carrying the sebaceous glands is detached from the dermis (epidermal split). After grinding of the samples, the mRNA is prepared using Qiagen columns, in accordance with the suppliers' instructions. The material thus prepared is subjected to large-scale transcriptome analysis on an Affymetrix platform. The data are subsequently standardized and, after statistical analysis, the results produced are expressed in arbitrary expression units (see below) accompanied, for each piece of data, by a statistical value for presence of the transcript (presence=1; absence=0).

CN(CCOc1ccc(CC2SC(=O)NC2=O)cc1)c1ccccn1 (stereo not shown) [A, 5-{4-[2-(methylpyridin-2-ylamino)ethoxy]benzyl}thiazolidine-2,4-dione]
CES1 Relative induction - kinetics (hours): 0 (CES1): 1
CES1 Relative induction - kinetics (hours): 8 (CES1): 1.93
CES1 Relative induction - kinetics (hours): 24 (CES1): 1.01
CES1 Relative induction - kinetics (hours): 48 (CES1): 0.45
CES1 Relative induction - kinetics (hours): 96 (CES1): 0.13
CES3 Relative induction - kinetics (hours): 0 (CES3 [1]): 1
CES3 Relative induction - kinetics (hours): 8 (CES3 [1]): 1.72
CES3 Relative induction - kinetics (hours): 24 (CES3 [1]): 0.46
CES3 Relative induction - kinetics (hours): 48 (CES3 [1]): 0.22
CES3 Relative induction - kinetics (hours): 96 (CES3 [1]): 0.07

CCCCCCCNC(=O)N(C)c1cccc(-c2ccc(C[C@H](OCC)C(=O)O)cc2)n1 [C, (S)-2-ethoxy-3-{4-[6-(3-heptyl-1-methylureido)pyridin-2-yl]phenyl}propionic acid]
CES1 Relative induction - kinetics (hours): 0 (CES1): 1
CES1 Relative induction - kinetics (hours): 8 (CES1): 0.55
CES1 Relative induction - kinetics (hours): 24 (CES1): 0.38
CES1 Relative induction - kinetics (hours): 48 (CES1): 0.04
CES1 Relative induction - kinetics (hours): 96 (CES1): 0.03
CES3 Relative induction - kinetics (hours): 0 (CES3 [1]): 1
CES3 Relative induction - kinetics (hours): 8 (CES3 [1]): 0.33
CES3 Relative induction - kinetics (hours): 24 (CES3 [1]): 0.12
CES3 Relative induction - kinetics (hours): 48 (CES3 [1]): 0.02
CES3 Relative induction - kinetics (hours): 96 (CES3 [1]): 0.00

CN(CCOc1ccc(CC2SC(=O)NC2=O)cc1)c1ccccn1 (stereo not shown) [Rosiglitazone]
Significance of the expression after treatment with 1% Rosiglitazone (presence =1, absence =0) (CES3 [2]; control condition 1): 0
Expression after treatment with 1% Rosiglitazone (CES3, 1370363_at) (CES3 [2]; control condition 443): 15 arbitrary expression units

Source: US20110150774A1, “SCREENING FOR MODULATORS OF CES1 AND/OR CES3 FOR THE TREATMENT OF ACNE, OF SEBORRHOEIC DERMATITIS OR OF HYPERSEBORRHOEA” (GALDERMA RESEARCH & DEVELOPMENT, priority 2008, published 2011)
